Reference: US20130131161A1, “METHODS AND COMPOSITIONS FOR CARDIOVASCULAR DISEASES AND CONDITIONS” (priority 2009, published 2013)

Test system: eNOS
Assay: eNOS protein abundance in HUVECs by immunochemical methods (Example 2)
Type: cell-based, human
Conditions: for Fold difference eNOS protein abundance (mean ± sd): (LA-419 5 μM)/(control); for eNOS protein abundance Fold difference (mean ± sd): LA-419 5 μM / control; for eNOS protein abundance Net increase (mean ± sd): avg 5 μM LA-419 − avg Cntl
Description: eNOS Activity and Protein Abundance Measurements
Using immunochemical methods, there was no change in any condition in relation to eNOS protein abundance, Tables ss-L1.

In the case of CC(=O)SC1COC2C(O[N+](=O)[O-])COC12 (stereo not drawn) [LA-419, S-(6-Nitro-oxi-hexahydro-furo[3,2-b]furan-3-1-il)thioacetate], the “Fold difference eNOS protein abundance (mean ± sd)” value (Intron 4 b/a, a/a, c/c, n=14) is reported as 1.00 (0.09), the “Fold difference eNOS protein abundance (mean ± sd)” value (Intron 4 b/a, n=10) is reported as 1.01 (0.10) and the “Fold difference eNOS protein abundance (mean ± sd)” value (Intron 4 b/b, b/a, c/c, n=42) is reported as 0.99 (0.08). The “Fold difference eNOS protein abundance (mean ± sd)” value (Intron 4 b/b, n=31) was 0.98 (0.07), the “Fold difference eNOS protein abundance (mean ± sd)” value (Intron 4 c/c, n=1) was 0.94 (0) and the “Fold difference eNOS protein abundance (mean ± sd)” value (T786C T/T & T/C, n=45) was 0.99 (0.08). The “Fold difference eNOS protein abundance (mean ± sd)” value (T-786C C/C, n=4) was 0.93 (0.06), the “Fold difference eNOS protein abundance (mean ± sd)” value (T-786C T/C & C/C, n=27) was 0.99 (0.09) and the “Fold difference eNOS protein abundance (mean ± sd)” value (T-786C T/C, n=23) was 1.00 (0.09). The “Fold difference eNOS protein abundance (mean ± sd)” value (T-786C T/T, n=22) was 0.99 (0.06), the “eNOS protein abundance Fold difference (mean ± sd)” value (Caucasian, G894T + T-786C variant G/G + T/C (n=3), Table K) was 1.10 (0.05) and the “eNOS protein abundance Fold difference (mean ± sd)” value (Caucasian, G894T + T-786C variant G/G + T/T (n=7), reference group, Table K) was 1.04 (0.04). For the same molecule, the “eNOS protein abundance Fold difference (mean ± sd)” value (Caucasian, G894T + T-786C variant G/T + T/C (n=10), Table K) was 1.00 (0.08), the “eNOS protein abundance Fold difference (mean ± sd)” value (Caucasian, G894T + T-786C variant G/T + T/T (n=3), Table K) was 1.02 (0.09) and the “eNOS protein abundance Fold difference (mean ± sd)” value (Caucasian, G894T + T-786C variant T/T + T/C (n=2), Table K) was 1.04 (0.01). The “eNOS protein abundance Fold difference (mean ± sd)” value (Caucasian, G894T variant G/G (n=10), major allele homozygotes, Table J) was 1.06 (0.05), the “eNOS protein abundance Fold difference (mean ± sd)” value (Caucasian, G894T variant G/G (n=10), Table I) was 1.06 (0.05) and the “eNOS protein abundance Fold difference (mean ± sd)” value (Caucasian, G894T variant G/T & T/T (n=16), minor allele carriers, Table J) was 1.01 (0.07). For the same molecule, the “eNOS protein abundance Fold difference (mean ± sd)” value (Caucasian, G894T variant G/T (n=13), Table I) was 1.00 (0.08), the “eNOS protein abundance Fold difference (mean ± sd)” value (Caucasian, G894T variant T/T (n=3), Table I) was 1.03 (0.02) and the “eNOS protein abundance Fold difference (mean ± sd)” value (Caucasian, Genotype Combination = all minor allele carriers (n=19), Table L) was 1.02 (0.08). The “eNOS protein abundance Fold difference (mean ± sd)” value (Caucasian, Genotype Reference = G/G + T/T (n=7), Table L) was 1.04 (0.04), the “eNOS protein abundance Fold difference (mean ± sd)” value (Caucasian, Intron 4 variant b/a & a/a (n=6), minor allele carriers, Table J) was 1.08 (0.06) and the “eNOS protein abundance Fold difference (mean ± sd)” value (Caucasian, Intron 4 variant b/a (n=5), Table I) was 1.07 (0.06). The “eNOS protein abundance Fold difference (mean ± sd)” value (Caucasian, Intron 4 variant b/b (n=18), major allele homozygotes, Table J) was 1.00 (0.06), the “eNOS protein abundance Fold difference (mean ± sd)” value (Caucasian, Intron 4 variant b/b (n=18), Table I) was 1.00 (0.06) and the “eNOS protein abundance Fold difference (mean ± sd)” value (Caucasian, T-786C variant T/C & C/C (n=16), minor allele carriers, Table J) was 1.02 (0.08). For the same molecule, the “eNOS protein abundance Fold difference (mean ± sd)” value (Caucasian, T-786C variant T/C (n=15), Table I) was 1.02 (0.08), the “eNOS protein abundance Fold difference (mean ± sd)” value (Caucasian, T-786C variant T/T (n=10), major allele homozygotes, Table J) was 1.03 (0.06) and the “eNOS protein abundance Fold difference (mean ± sd)” value (Caucasian, T-786C variant T/T (n=10), Table I) was 1.03 (0.06). The “eNOS protein abundance Fold difference (mean ± sd)” value (G894T + T-786C variant T/T + C/C (n=1), Table K) was 1.01 (0), the “eNOS protein abundance Fold difference (mean ± sd)” value (Intron 4 variant a/a (n=1), Table I) was 1.14 (0) and the “eNOS protein abundance Fold difference (mean ± sd)” value (T-786C variant C/C (n=1), Table I) was 1.01 (0). For the same molecule, the eNOS protein abundance (any condition, Tables ss-L1) was “no change”, the “eNOS protein abundance Net increase (mean ± sd)” value (Combination of all G894T + T786C genotypes but G/G + T/T, n=31) was −0.12 (0.53) pg/ug and the “eNOS protein abundance Net increase (mean ± sd)” value (G894T + T786C G/G + T/C, n=8) was −0.17 (0.77) pg/ug. For the same molecule, the “eNOS protein abundance Net increase (mean ± sd)” value (G894T + T786C G/G + T/T, n=18) was −0.09 (0.35) pg/ug, the “eNOS protein abundance Net increase (mean ± sd)” value (G894T + T786C G/T + C/C, n=1) was −0.99 (0) pg/ug and the “eNOS protein abundance Net increase (mean ± sd)” value (G894T + T786C G/T + T/C, n=13) was −0.03 (0.42) pg/ug. The “eNOS protein abundance Net increase (mean ± sd)” value (G894T + T786C G/T + T/T, n=4) was −0.03 (0.46) pg/ug, the “eNOS protein abundance Net increase (mean ± sd)” value (G894T + T786C T/T + C/C, n=3) was −0.41 (0.46) pg/ug and the “eNOS protein abundance Net increase (mean ± sd)” value (G894T + T786C T/T + T/C, n=2) was 0.17 (0.02) pg/ug. The “eNOS protein abundance Net increase (mean ± sd)” value (G894T G/G, n=26) was −0.12 (0.50) pg/ug, the “eNOS protein abundance Net increase (mean ± sd)” value (G894T G/T & T/T, n=23) was −0.10 (0.45) pg/ug and the “eNOS protein abundance Net increase (mean ± sd)” value (G894T G/T, n=18) was −0.08 (0.46) pg/ug. For the same molecule, the “eNOS protein abundance Net increase (mean ± sd)” value (G894T T/T, n=5) was −0.18 (0.45) pg/ug, the “eNOS protein abundance Net increase (mean ± sd)” value (Intron 4 a/a, n=3) was −0.05 (0.69) pg/ug and the “eNOS protein abundance Net increase (mean ± sd)” value (Intron 4 b/a, a/a, c/c, n=14) was −0.05 (0.55) pg/ug. For the same molecule, the “eNOS protein abundance Net increase (mean ± sd)” value (Intron 4 b/a, n=10) was −0.02 (0.56) pg/ug, the “eNOS protein abundance Net increase (mean ± sd)” value (Intron 4 b/b, n=31) was −0.14 (0.45) pg/ug and the “eNOS protein abundance Net increase (mean ± sd)” value (Intron 4 c/c, n=1) was −0.44 (0) pg/ug. For the same molecule, the “eNOS protein abundance Net increase (mean ± sd)” value (T786C C/C, n=4) was −0.55 (0.47) pg/ug, the “eNOS protein abundance Net increase (mean ± sd)” value (T786C T/C & C/C, n=27) was −0.13 (0.55) pg/ug and the “eNOS protein abundance Net increase (mean ± sd)” value (T786C T/C, n=23) was −0.06 (0.54) pg/ug. For the same molecule, the “eNOS protein abundance Net increase (mean ± sd)” value (T786C T/T, n=22) was −0.08 (0.36) pg/ug.
